In ChEMBL document CHEMBL2057090, “Discovery of novel PI3Kγ/δ inhibitors as potential agents for inflammation” (Bioorg Med Chem Lett, 2012):
pIC50: −log10 of the molar value. Converted amounts (≈) assume the structure as drawn.

Legend:
[1] = molecular target: T1, Phosphatidylinositol 4,5-bisphosphate 3-kinase catalytic subunit delta isoform (Homo sapiens, UniProt O00329); assay: Inhibition of PI3Kdelta in human HL60 cell lysate by kinobead assay
T1 sequence (O00329 whole entry): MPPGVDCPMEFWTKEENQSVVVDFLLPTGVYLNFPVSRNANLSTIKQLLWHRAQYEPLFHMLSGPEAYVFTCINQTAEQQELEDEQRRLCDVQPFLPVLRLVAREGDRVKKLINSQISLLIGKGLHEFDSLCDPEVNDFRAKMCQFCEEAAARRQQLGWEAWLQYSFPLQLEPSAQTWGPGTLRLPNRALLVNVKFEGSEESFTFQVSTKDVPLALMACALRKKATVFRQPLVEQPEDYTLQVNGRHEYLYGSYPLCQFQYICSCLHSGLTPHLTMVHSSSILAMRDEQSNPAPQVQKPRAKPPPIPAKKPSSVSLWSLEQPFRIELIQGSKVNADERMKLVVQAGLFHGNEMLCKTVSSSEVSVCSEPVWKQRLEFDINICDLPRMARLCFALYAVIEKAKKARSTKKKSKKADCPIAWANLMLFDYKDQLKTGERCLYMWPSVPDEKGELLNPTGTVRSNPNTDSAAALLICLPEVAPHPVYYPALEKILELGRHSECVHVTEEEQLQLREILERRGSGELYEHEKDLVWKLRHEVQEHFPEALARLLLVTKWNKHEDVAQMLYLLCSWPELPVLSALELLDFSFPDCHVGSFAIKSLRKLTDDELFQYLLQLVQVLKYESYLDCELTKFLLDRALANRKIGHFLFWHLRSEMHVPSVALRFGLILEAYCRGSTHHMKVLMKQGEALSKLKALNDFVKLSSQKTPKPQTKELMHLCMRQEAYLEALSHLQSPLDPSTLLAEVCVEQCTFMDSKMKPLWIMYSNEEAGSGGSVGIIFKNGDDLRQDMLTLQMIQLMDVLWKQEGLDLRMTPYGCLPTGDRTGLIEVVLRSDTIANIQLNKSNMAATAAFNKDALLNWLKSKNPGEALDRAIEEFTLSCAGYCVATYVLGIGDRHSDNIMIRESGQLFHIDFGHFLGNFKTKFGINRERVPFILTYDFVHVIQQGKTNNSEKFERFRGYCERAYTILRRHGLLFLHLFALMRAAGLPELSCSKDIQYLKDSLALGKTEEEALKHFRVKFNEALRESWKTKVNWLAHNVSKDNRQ

[2] = molecular target: Phosphatidylinositol 4,5-bisphosphate 3-kinase catalytic subunit alpha isoform (Homo sapiens, UniProt P42336); assay: Inhibition of PI3Kalpha in human HL60 cell lysate by kinobead assay
Sequence of Phosphatidylinositol 4,5-bisphosphate 3-kinase catalytic subunit alpha isoform (P42336 whole entry, canonical isoform): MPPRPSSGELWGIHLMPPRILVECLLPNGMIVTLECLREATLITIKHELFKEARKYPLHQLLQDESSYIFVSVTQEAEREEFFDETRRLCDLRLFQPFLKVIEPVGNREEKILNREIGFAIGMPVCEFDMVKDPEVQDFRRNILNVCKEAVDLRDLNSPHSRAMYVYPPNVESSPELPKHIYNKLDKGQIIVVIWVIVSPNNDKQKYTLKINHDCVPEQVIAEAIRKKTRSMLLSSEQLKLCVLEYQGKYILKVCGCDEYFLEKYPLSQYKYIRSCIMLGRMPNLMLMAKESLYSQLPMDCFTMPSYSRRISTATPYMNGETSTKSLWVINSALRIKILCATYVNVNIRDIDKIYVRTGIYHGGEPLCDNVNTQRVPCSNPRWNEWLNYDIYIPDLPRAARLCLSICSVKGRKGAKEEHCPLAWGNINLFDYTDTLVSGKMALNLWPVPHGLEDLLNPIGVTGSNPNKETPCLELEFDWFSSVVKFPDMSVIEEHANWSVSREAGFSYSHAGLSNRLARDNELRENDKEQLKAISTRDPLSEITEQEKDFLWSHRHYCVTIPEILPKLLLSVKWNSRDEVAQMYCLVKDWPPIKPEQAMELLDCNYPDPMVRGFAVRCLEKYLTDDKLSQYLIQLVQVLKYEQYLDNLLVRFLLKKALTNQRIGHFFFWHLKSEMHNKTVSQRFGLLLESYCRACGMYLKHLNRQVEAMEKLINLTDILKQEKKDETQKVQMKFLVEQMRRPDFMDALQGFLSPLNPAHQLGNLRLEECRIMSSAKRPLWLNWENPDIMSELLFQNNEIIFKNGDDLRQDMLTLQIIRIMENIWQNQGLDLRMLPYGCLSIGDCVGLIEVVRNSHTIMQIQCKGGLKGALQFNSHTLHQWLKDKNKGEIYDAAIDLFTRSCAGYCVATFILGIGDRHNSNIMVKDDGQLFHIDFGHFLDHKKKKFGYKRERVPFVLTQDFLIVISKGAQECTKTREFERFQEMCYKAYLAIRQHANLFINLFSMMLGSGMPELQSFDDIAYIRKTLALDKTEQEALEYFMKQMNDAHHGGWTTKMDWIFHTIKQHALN

[3] = molecular target: Phosphatidylinositol 4,5-bisphosphate 3-kinase catalytic subunit beta isoform (Homo sapiens, UniProt P42338); assay: Inhibition of PI3Kbeta in human HL60 cell lysate by kinobead assay; format: cell-free, HL-60
Sequence of Phosphatidylinositol 4,5-bisphosphate 3-kinase catalytic subunit beta isoform (P42338 whole entry, canonical isoform): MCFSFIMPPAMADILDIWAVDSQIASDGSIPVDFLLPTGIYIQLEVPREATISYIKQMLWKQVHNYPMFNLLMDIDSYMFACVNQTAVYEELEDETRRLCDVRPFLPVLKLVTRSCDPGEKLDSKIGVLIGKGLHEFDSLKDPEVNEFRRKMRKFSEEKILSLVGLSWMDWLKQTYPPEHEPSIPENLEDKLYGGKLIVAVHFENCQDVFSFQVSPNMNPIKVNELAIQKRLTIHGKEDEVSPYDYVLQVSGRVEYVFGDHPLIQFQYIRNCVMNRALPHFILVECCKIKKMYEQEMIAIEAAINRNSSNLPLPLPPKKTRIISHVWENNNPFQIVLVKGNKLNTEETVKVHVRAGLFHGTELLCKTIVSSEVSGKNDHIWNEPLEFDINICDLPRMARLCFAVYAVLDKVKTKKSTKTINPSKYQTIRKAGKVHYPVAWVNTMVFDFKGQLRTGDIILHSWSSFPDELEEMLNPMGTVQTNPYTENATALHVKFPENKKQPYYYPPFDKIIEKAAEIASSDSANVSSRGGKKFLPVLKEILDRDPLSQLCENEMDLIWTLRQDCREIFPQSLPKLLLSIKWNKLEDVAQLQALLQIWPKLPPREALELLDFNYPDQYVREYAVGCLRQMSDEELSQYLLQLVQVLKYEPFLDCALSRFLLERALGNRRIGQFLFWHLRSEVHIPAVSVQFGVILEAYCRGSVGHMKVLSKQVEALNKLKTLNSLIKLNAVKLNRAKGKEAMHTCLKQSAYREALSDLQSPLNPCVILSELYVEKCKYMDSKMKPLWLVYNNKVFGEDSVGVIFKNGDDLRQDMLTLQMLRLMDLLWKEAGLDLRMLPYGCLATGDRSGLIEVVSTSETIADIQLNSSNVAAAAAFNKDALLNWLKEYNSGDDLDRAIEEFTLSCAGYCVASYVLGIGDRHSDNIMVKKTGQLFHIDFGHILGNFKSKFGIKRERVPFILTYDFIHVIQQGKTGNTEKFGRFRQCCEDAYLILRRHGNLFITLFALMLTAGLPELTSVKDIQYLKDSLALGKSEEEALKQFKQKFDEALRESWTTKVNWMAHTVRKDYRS

[4] = molecular target: Phosphatidylinositol 4,5-bisphosphate 3-kinase catalytic subunit gamma isoform (Homo sapiens, UniProt P48736); assay: Inhibition of PI3Kgamma in human HL60 cell lysate by kinobead assay
Sequence of Phosphatidylinositol 4,5-bisphosphate 3-kinase catalytic subunit gamma isoform (P48736 whole entry, canonical isoform): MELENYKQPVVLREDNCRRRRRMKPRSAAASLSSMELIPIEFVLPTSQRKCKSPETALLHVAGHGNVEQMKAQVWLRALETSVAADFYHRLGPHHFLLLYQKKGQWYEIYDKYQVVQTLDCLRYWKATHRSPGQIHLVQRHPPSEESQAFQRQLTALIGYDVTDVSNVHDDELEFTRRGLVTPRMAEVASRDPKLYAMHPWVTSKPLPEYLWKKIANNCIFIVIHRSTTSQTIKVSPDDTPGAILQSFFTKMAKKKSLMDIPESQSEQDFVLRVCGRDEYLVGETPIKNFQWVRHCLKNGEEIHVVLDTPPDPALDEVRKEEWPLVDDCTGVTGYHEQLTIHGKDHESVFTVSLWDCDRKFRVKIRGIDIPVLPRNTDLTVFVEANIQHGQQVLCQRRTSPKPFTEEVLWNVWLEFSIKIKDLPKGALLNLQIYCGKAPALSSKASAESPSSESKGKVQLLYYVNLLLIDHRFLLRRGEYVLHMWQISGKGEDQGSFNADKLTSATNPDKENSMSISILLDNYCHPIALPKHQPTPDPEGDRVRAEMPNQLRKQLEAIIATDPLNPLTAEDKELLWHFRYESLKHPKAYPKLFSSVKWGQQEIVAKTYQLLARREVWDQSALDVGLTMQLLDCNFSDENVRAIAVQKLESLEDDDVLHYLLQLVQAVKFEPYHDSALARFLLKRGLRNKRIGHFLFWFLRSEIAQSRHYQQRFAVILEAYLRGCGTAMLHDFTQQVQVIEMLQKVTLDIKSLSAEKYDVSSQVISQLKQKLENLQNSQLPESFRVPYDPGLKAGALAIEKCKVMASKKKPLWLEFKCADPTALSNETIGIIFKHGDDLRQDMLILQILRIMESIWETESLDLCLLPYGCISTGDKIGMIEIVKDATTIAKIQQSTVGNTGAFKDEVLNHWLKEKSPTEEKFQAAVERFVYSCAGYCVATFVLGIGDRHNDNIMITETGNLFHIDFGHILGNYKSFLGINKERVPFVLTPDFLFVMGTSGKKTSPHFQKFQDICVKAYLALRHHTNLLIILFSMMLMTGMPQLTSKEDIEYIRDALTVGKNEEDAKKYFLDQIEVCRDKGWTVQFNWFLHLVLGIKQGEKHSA

[5] = Antiinflammatory activity in human neutrophils assessed as inhibition of fMLP-induced migration; format: functional, cell-based; conditions: Neutrophil
[6] = Kinetic solubility in 1%DMSO solution; format: physicochemical; conditions: read-out: Kinetic_solubility
Liver microsomes [7] = assay: Intrinsic clearance in rat liver microsomes assessed per g of liver; format: ADME, Microsome
Liver microsomes [8] = assay: Intrinsic clearance in human liver microsomes assessed per g of liver; format: ADME, Microsome
[9] = Apparent permeability from apical to basal side of human Caco2 cells; format: ADME, cell-based; conditions: Caco-2
[10] = Efflux ratio of apparent permeability across human Caco2 cells; format: ADME, cell-based; conditions: Caco-2
Mus musculus = assay: Antiinflammatory activity in BALB/c mouse assessed as reduction in LPS-induced neutrophil accumulation in bronchoalveolar lung fluid at 0.5 mg, it administered 1 hr prior to LPS-challenge and measured after 8 hrs relative to vehicle treated control; format: functional; parameters: scale not given: the % may be the effect or the level left
Plasma [11] = assay: Drug metabolism in iv dosed rat plasma assessed as 2-(3-(6-(5-(N-tert-butylsulfamoyl)pyridin-3-yl)-[1,2,4]triazolo[1,5-a]pyridin-2-yl)ureido)acetic acid formation; format: ADME, organism-based; conditions: in vivo
[12] = Clearance in iv dosed rat; format: ADME, organism-based; conditions: in vivo
Plasma [13] = assay: Drug metabolism in iv dosed rat plasma assessed as CZC19945 formation; format: ADME, organism-based; conditions: in vivo

Row | SMILES | pIC50 [1] | pIC50 [2] | pIC50 [3] | pIC50 [4] | pIC50 [5] | solubility kinetic [6] | CLint (Liver microsomes [7]) | CLint (Liver microsomes [8]) | Papp A→B [9] | efflux ratio [10] | Drug metabolism (Plasma [11]) | clearance [12] | Drug metabolism (Plasma [13]) | Activity (Mus musculus)
1 | CC(C)(C)NS(=O)(=O)c1cncc(-c2ccc3nc(NC(=O)Nc4ccccc4)nn3c2)c1 | < 4.60 | < 4.00 | < 4.00 | 6.60 |  |  |  |  |  |  |  |  |  | 
2 | CC(C)(C)NS(=O)(=O)c1cncc(-c2ccc3nc(NC(=O)NCc4ccccc4)nn3c2)c1 | 5.80 | < 4.70 | 5.50 | 7.20 | 5.80 |  |  |  |  |  |  |  |  | 
3 | CN(C)C(=O)CNC(=O)Nc1nc2ccc(-c3cncc(S(=O)(=O)NC(C)(C)C)c3)cn2n1 | 7.10 | 4.90 | 5.90 | 8.50 | 6.10 | < 6.5 µM | 0.9 mL/min/g | 0.5 mL/min/g | 0.54 ×10⁻⁶ cm/s | 109 |  |  |  | 
4 | CC(C)(C)NS(=O)(=O)c1cncc(-c2ccc3nc(NC(=O)NCCn4cccn4)nn3c2)c1 | 6.70 | 6.20 | 6.20 | 7.60 | 6.80 |  |  |  |  |  |  |  |  | 
5 | CC(C)(C)NS(=O)(=O)c1cncc(-c2ccc3nc(NC(=O)NCCc4nnc(C5CC5)o4)nn3c2)c1 | 7.10 | 5.50 | 6.60 | 8.00 | 6.50 |  |  |  |  |  |  |  |  | 
6 | CNC(=O)CNC(=O)Nc1nc2ccc(-c3cncc(S(=O)(=O)NC(C)(C)C)c3)cn2n1 | 6.10 | < 4.80 | < 5.70 | 7.80 | 4.70 |  |  |  |  |  |  |  |  | 
7 | CC(C)(C)NS(=O)(=O)c1cncc(-c2ccc3nc(NC(=O)NCC(=O)N4CCCC4)nn3c2)c1 | 7.20 | 6.00 | 5.90 | 8.20 | 5.80 |  |  |  |  |  |  |  |  | 
8 | CS(=O)(=O)c1cncc(-c2ccc3nc(N)nn3c2)c1 | 5.20 | 5.00 | 5.60 | 7.00 |  |  |  |  |  |  |  |  |  | 
9 | CC(C)(C)NS(=O)(=O)c1cncc(-c2ccc3nc(N)nn3c2)c1 | 5.80 | 5.60 | 6.70 | 7.60 | 6.00 |  |  |  |  |  |  |  |  | 
10 | CNC(=O)Nc1nc2ccc(-c3cncc(S(=O)(=O)NC(C)(C)C)c3)cn2n1 | 6.10 | < 5.30 | 6.40 | 7.90 | 6.10 |  |  |  |  |  |  |  |  | 
11 | CC(C)(C)NS(=O)(=O)c1cncc(-c2ccc3nc(NC(=O)N4CCOCC4)nn3c2)c1 | 5.50 | < 4.60 | 5.40 | 6.90 | 5.10 |  |  |  |  |  |  |  |  | 
12 | CN(C)CCNC(=O)Nc1nc2ccc(-c3cncc(S(=O)(=O)NC(C)(C)C)c3)cn2n1 | 5.90 | < 5.30 | < 6.00 | 6.90 | 4.90 |  |  |  |  |  |  |  |  | 

Stronger by pIC50 [1], values ahead:

Row | pIC50 [1] | pIC50 [2] | pIC50 [3] | pIC50 [4] | pIC50 [5] | solubility kinetic [6] | CLint (Liver microsomes [7]) | CLint (Liver microsomes [8]) | Papp A→B [9] | efflux ratio [10] | Drug metabolism (Plasma [11]) | clearance [12] | Drug metabolism (Plasma [13]) | SMILES | Activity (Mus musculus)
13 | 7.60 | < 5.50 | 6.00 | 7.50 | 6.40 |  |  |  |  |  |  |  |  | CC(C)(C)NS(=O)(=O)c1cncc(-c2ccc3nc(NC(=O)NCCc4ccccc4)nn3c2)c1 | 
14 | 7.90 | 5.70 | 7.10 | 7.60 | 6.60 |  |  |  |  |  |  |  |  | Cc1noc(C)c1CCNC(=O)Nc1nc2ccc(-c3cncc(S(=O)(=O)NC(C)(C)C)c3)cn2n1 | 
15 | 7.80 | 6.10 | < 6.70 | 8.10 | 6.40 |  |  |  |  |  |  |  |  | Cc1nc(CCNC(=O)Nc2nc3ccc(-c4cncc(S(=O)(=O)NC(C)(C)C)c4)cn3n2)cs1 | 
16 | 7.60 | 5.90 | 6.90 | 8.20 | 6.90 |  |  |  |  |  |  |  |  | CC(C)(C)NS(=O)(=O)c1cncc(-c2ccc3nc(NC(=O)NCCc4cnccn4)nn3c2)c1 | 
17 | 8.20 | 6.10 | 7.20 | 8.60 | 7.10 | > 100 µM | 0.4 mL/min/g | 0 mL/min/g | 0.08 ×10⁻⁶ cm/s | 252 |  |  |  | CC(C)(C)NS(=O)(=O)c1cncc(-c2ccc3nc(NC(=O)NCCn4nnc(C5CC5)n4)nn3c2)c1 | 37%
18 | 7.30 | < 5.20 | 5.60 | 7.20 | 6.60 |  |  |  |  |  |  |  |  | CC(C)(C)NS(=O)(=O)c1cncc(-c2ccc3nc(NC(=O)NCCCn4nnc(C5CC5)n4)nn3c2)c1 | 
19 | 7.80 | 6.40 | 6.40 | 8.40 | 6.30 | > 100 µM | 0.8 mL/min/g | 0 mL/min/g |  |  | Not Active | > 200 mL/min/kg | Not Active | CC(C)(C)NS(=O)(=O)c1cncc(-c2ccc3nc(NC(=O)NCC(=O)N4CCOCC4)nn3c2)c1 | 34%
20 | 7.90 | 6.10 | 6.00 | 8.60 | 5.90 |  |  |  |  |  |  |  |  | CN1CCN(C(=O)CNC(=O)Nc2nc3ccc(-c4cncc(S(=O)(=O)NC(C)(C)C)c4)cn3n2)CC1 | 
21 | 7.70 | 5.90 | < 6.70 | 7.80 | 7.30 | 65 µM (≈ 32.7 µg/mL) | 0.9 mL/min/g | 1.4 mL/min/g |  |  |  |  |  | CC(C)(C)NS(=O)(=O)c1cncc(-c2ccc3nc(NC(=O)NCCN4CCOCC4)nn3c2)c1 | 
